This data set deals with rodent carcinogenicity bioassays, tumor incidence. In words: CCRIS carcinogenicity studies. In outline:
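Archive of carcinogenicity, mutagenicity, tumor promotion and tumor inhibition results drawn from journals, NCI reports and other sources, expert-reviewed; covers 1985-2011 and is no longer updated.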

Active and inactive are the calls of the source. No rule for the calls is given here.

For the molecule `Nc1ccc2c(c1)C(=O)c1ccccc1C2=O`, the carcinogen call reads like this: (Species: MOUSE, Strain/Sex: B6C3F1/FEMALE, Route: ORAL, Dose: 0, 0.5, 1.0% OF DIET, Dose: 0, 0.5, 1.0% OF DIET, Tumor Site: Type of Lesion: LYMPHATIC SYSTEM: MALIGNANT LYMPHOMA, LIVER: HEPATOCELLULAR CARCINOMA) “active; positive”; (Species: MOUSE, Strain/Sex: B6C3F1/MALE, Route: ORAL, Dose: 0, 0.5, 1.0% OF DIET, Dose: 0, 0.5, 1.0% OF DIET, Tumor Site: Type of Lesion: LIVER: HEPATOCELLULAR CARCINOMA, ADENOMA) “active; positive”; (Species: RAT, Strain/Sex: F344/MALE, Route: ORAL, Dose: 0, 0.35, 0.69% OF DIET, Dose: 0, 0.35, 0.69% OF DIET, Tumor Site: Type of Lesion: LIVER: HEPATOCELLULAR CARCINOMA, NEOPLASTIC NODULE) “active; positive”.

In the case of `CNN`, the carcinogen call was “inactive; negative” (Species: DOG, Strain/Sex: BEAGLE/FEMALE, Route: INHALATION, Dose: 0, 0.2, 2 PPM 6 HR/D 5 D/WK FOR 1 YR (STUDY DURATION: 6 YR), Dose: 0, 0.2, 2 PPM 6 HR/D 5 D/WK FOR 1 YR (STUDY DURATION: 6 YR)); “inactive; negative” (Species: DOG, Strain/Sex: BEAGLE/MALE, Route: INHALATION, Dose: 0, 0.2, 2 PPM 6 HR/D 5 D/WK FOR 1 YR (STUDY DURATION: 6 YR), Dose: 0, 0.2, 2 PPM 6 HR/D 5 D/WK FOR 1 YR (STUDY DURATION: 6 YR)); “active; positive” (Species: HAMSTER, Route: ORAL, Tumor Site: Type of Lesion: LIVER); “active; positive” (Species: HAMSTER, Strain/Sex: SYRIAN/MALE, Route: INHALATION, Dose: 0, 0.2, 2, 5 PPM 6 HR/D 5 D/WK FOR 1 YR (STUDY DURATION: 1 YR), Dose: 0, 0.2, 2, 5 PPM 6 HR/D 5 D/WK FOR 1 YR (STUDY DURATION: 1 YR), Tumor Site: Type of Lesion: NASAL CAVITY: ADENOMA); “active; positive” (Species: MOUSE, Route: ORAL, Tumor Site: Type of Lesion: LUNG); “active; positive” (Species: MOUSE, Strain/Sex: C57BL/FEMALE, Route: INHALATION, Dose: 0, 0.02, 0.2, 2, 5 PPM 6 HR/D 5 D/WK FOR 1 YR (STUDY DURATION: 2 YR), Dose: 0, 0.02, 0.2, 2, 5 PPM 6 HR/D 5 D/WK FOR 1 YR (STUDY DURATION: 2 YR), Tumor Site: Type of Lesion: LUNG: ADENOMA, LIVER: ADENOMA, CARCINOMA, HEMATOPOIETIC SYSTEM: HEMANGIOMA, Tumor Site: Type of Lesion: LUNG: ADENOMA, LIVER: ADENOMA, CARCINOMA, HEMATOPOIETIC SYSTEM: HEMANGIOMA). For the same molecule, the carcinogen call was “active; positive” (Species: MOUSE, Strain/Sex: SWISS/FEMALE, Route: ORAL, Dose: 0.001% SOLUTION IN DRINKING WATER FOR LIFE (DAILY INTAKE: 0.078 MG) (STUDY DURATION: LIFETIME), Tumor Site: Type of Lesion: LUNG: ADENOMA, ADENOCARCINOMA, HEMATOPOIETIC SYSTEM: MALIGNANT LYMPHOMA, MAMMARY GLAND: ADENOCARCINOMA, Tumor Site: Type of Lesion: LUNG: ADENOMA, ADENOCARCINOMA, HEMATOPOIETIC SYSTEM: MALIGNANT LYMPHOMA, MAMMARY GLAND: ADENOCARCINOMA); “active; positive” (Species: MOUSE, Strain/Sex: SWISS/MALE, Route: ORAL, Dose: 0.001% SOLUTION IN DRINKING WATER FOR LIFE (DAILY INTAKE: 0.102 MG) (STUDY DURATION: LIFETIME), Tumor Site: Type of Lesion: LUNG: ADENOMA, ADENOCARCINOMA, HEMATOPOIETIC SYSTEM: MALIGNANT LYMPHOMA); “inactive; negative” (Species: RAT, Strain/Sex: F344/FEMALE, Route: INHALATION, Dose: 0, 0.02, 0.2, 2, 5 PPM 6 HR/D 5 D/WK FOR 1 YR (STUDY DURATION: 2 YR), Dose: 0, 0.02, 0.2, 2, 5 PPM 6 HR/D 5 D/WK FOR 1 YR (STUDY DURATION: 2 YR)); “inactive; negative” (Species: RAT, Strain/Sex: F344/MALE, Route: INHALATION, Dose: 0, 0.02, 0.2, 2, 5 PPM 6 HR/D 5 D/WK FOR 1 YR (STUDY DURATION: 2 YR), Dose: 0, 0.02, 0.2, 2, 5 PPM 6 HR/D 5 D/WK FOR 1 YR (STUDY DURATION: 2 YR)).

Take `C=C(C)[C@H]1CC=C(C)CC1`: the carcinogen call is “inactive; negative” (Species: MOUSE, Strain/Sex: B6C3F1/FEMALE, Route: GAVAGE, Dose: 0, 500, 1000 MG/KG IN CORN OIL 5 D/WK FOR 103 WK (STUDY DURATION: 105 WK), Dose: 0, 500, 1000 MG/KG IN CORN OIL 5 D/WK FOR 103 WK (STUDY DURATION: 105 WK)); “inactive; negative” (Species: MOUSE, Strain/Sex: B6C3F1/MALE, Route: GAVAGE, Dose: 0, 250, 500 MG/KG IN CORN OIL 5 D/WK FOR 103 WK (STUDY DURATION: 105 WK), Dose: 0, 250, 500 MG/KG IN CORN OIL 5 D/WK FOR 103 WK (STUDY DURATION: 105 WK)); “inactive; negative” (Species: RAT, Strain/Sex: F344/FEMALE, Route: GAVAGE, Dose: 0, 300, 600 MG/KG IN CORN OIL 5 D/WK FOR 103 WK (STUDY DURATION: 106 WK), Dose: 0, 300, 600 MG/KG IN CORN OIL 5 D/WK FOR 103 WK (STUDY DURATION: 106 WK)); “active; positive” (Species: RAT, Strain/Sex: F344/MALE, Route: GAVAGE, Dose: 0, 75, 150 MG/KG IN CORN OIL 5 D/WK FOR 103 WK (STUDY DURATION: 106 WK), Dose: 0, 75, 150 MG/KG IN CORN OIL 5 D/WK FOR 103 WK (STUDY DURATION: 106 WK), Tumor Site: Type of Lesion: KIDNEY: TUBULAR CELL ADENOMA, TUBULAR CELL ADENOMA OR ADENOCARCINOMA).

Turning to `O[C@H]1C=Cc2c(ccc3c2-c2cccc4cccc-3c24)[C@@H]1O`, the carcinogen call was “active; positive” (Species: MOUSE, Strain/Sex: CD-1/FEMALE, Route: INTRAPERITONEAL, Dose: 0, 0.275, 1.1 UMOL (TOTAL DOSE) ADMINISTERED OVER DAYS 1, 8, AND 15 OF LIFE (STUDY DURATION: 52 WEEKS), Dose: 0, 0.275, 1.1 UMOL (TOTAL DOSE) ADMINISTERED OVER DAYS 1, 8, AND 15 OF LIFE (STUDY DURATION: 52 WEEKS), Tumor Site: Type of Lesion: LUNG: ALVEOLAR/BRONCHIOLAR CARCINOMA) and “active; positive” (Species: MOUSE, Strain/Sex: CD-1/MALE, Route: INTRAPERITONEAL, Dose: 0, 0.275, 1.1 UMOL(TOTAL DOSE) ADMINISTERED OVER DAYS 1, 8, AND 15 OF LIFE (STUDY DURATION: 52 WEEKS), Dose: 0, 0.275, 1.1 UMOL(TOTAL DOSE) ADMINISTERED OVER DAYS 1, 8, AND 15 OF LIFE (STUDY DURATION: 52 WEEKS), Tumor Site: Type of Lesion: LUNG: ALVEOLAR/BRONCHIOLAR CARCINOMA, LIVER: ADENOMA OR CARCINOMA).
